Test results: publication PMC11476552, “Synthesis and Preliminary Studies for In Vitro Biological Activity of Two New Water-Soluble Bis(thio)carbohydrazones and Their Copper(II) and Zinc(II) Complexes” (International Journal of Molecular Sciences, 2024)
Several values for one entry are separate records, joined by “and”; a condition that tells them apart may be missing. Equal values may be shown once. Read-outs that look alike come from different tables or passages of the source.

What was measured:
[1] = Proton dissociation constants by pH potentiometry; type: physicochemical; conditions: aqueous solution, T = 298.2 K, I = 0.1 M KCl
Description: Between pH = 3.98 and 6.00, the solutions were colourless with absorption maxima at 237 and 320 nm. From pH = 6.49, the solution was pale green, and the colour became more intense until pH = 10.00; the colour change was accompanied by the appearance of bands at 253 and 393 nm, with a shoulder at 445 nm. […] This value is similar to that reported for the deprotonation of the phenolic moiety of sodium 5-sulfonate-salicylaldehyde thiosemicarbazones. The values of pKa1 and pKa2, associated with the proton dissociation of the sulfonic groups, are expected to have much lower values (below 3) and could not be determined from these experiments. Potentiometric titrations were performed in an attempt to determine the value of the pKa of the hydrazidic NH protons (pKa5 and pKa6) and, possibly, those of the protonated sulfonate groups. Effectively, potentiometric data allowed us to determine the pKa5 value, along with pKa3 and pKa4 (Table 2). The values of pKa3 and pKa4 obtained by potentiometry are consistent with those obtained by spectrophotometric titrations.
Similarly, the proton dissociation constants of bis-CH were studied spectrophotometrically in aqueous solution between pH = 3.98 and 10.00 (Figure 1B). […] The spectrophotometric data were processed by means of HypSpec2014 software, leading to pKa3 = 7.34(1) and pKa4 = 8.58(1), which were assigned to the deprotonation of the two phenolic OH groups (Table 2). As for bis-TCH, the single-site pKa value of the phenolic groups can be estimated as the average pKa (7.96). Additionally, to complete the analysis, we carried out potentiometric titrations of bis-CH starting from a very acidic pH. […] Importantly, no dissociation of the hydrazidic NH groups was observed, a behaviour consistent with that reported in the literature.
Glass-electrode potentiometric titrations of bis-TCH and bis-CH were carried out in aqueous solution at T = 298.2 ± 0.1 K and I = 0.1 M (KCl) under a stream of N2, using 1.5 mL samples. The potentiometric titrations were carried out using an automatic Metrohm OMNIS titrator provided with a Metrohm semi-micro glass electrode. The system was controlled by a PC to monitor the attainment of the equilibrium through pH measurements vs. time and the addition of titrant aliquots. The Metrohm combined glass electrode was calibrated in terms of [H^+] (hereafter, pH = −log[H^+]) by titrating HCl solutions with KOH solutions previously standardized against potassium hydrogen phthalate. […] The protonation constants of Na2H4L^1·5.5 H2O and Na2H4L^2·5 H2O were determined by alkalimetric titration of 3 samples (3.0–4.5 mM). All samples were prepared by weight of the pure solids and dissolved in freshly prepared, N2-fluxed, double-distilled water. Potentiometric data treatment was carried out using Hyperquad2013 software. Distribution diagrams were obtained using Hyss2009 software.

[2] = tested on: U937 cells; experiment: Antiproliferative activity, trypan blue cell count, U937; type: cell-based; conditions: for GI50: Homo sapiens, U-937, U937, 72 h
Protocol: We have started to investigate the antiproliferative profile of the ligands and of the complexes C1–C4 using a normal fibroblast cell line (Hs27) and a leukaemia cell line (U937), an in vitro cell model system systematically used to validate the toxicological profile of new potential anticancer agents. For the cytotoxicity assay, we treated Hs27 and U937 cells with five different concentrations of compound, ranging from 12.5 to 100 µg/mL, for 24, 48, and 72 h.
U937 cells (ATCC, CRL-1593.2) were obtained from the American Tissue Culture Collection (Rockville, MD, USA) and were cultured in Roswell Park Memorial Institute Medium (RPMI-1640) (Euroclone, Italy); Hs27 cells (ATCC, CRL1634) were grown in DMEM. Both media were supplemented with 10% (v/v) foetal bovine serum (Euroclone, Italy), 1% L-glutamine (2 mM) (Euroclone, Italy), and 1% penicillin (100 U/mL)/streptomycin (100 µg/mL) (Euroclone, Italy), added with 10% (v/v) foetal bovine serum (Euroclone, Italy), 1% L-glutamine (2 mM) (Euroclone, Italy), and 1% penicillin (100 U/mL)/streptomycin (100 µg/mL) (Euroclone, Italy). Flasks were maintained at 37 °C and 5% CO2 in a humidified atmosphere. Cultures media were refreshed every two or three days during sub-culturing.
The antiproliferative activity of the ligands and the complexes C1–C4 was evaluated in vitro on U937 and Hs27 cell lines. In the exponential growth phase, cells were seeded at 5 × 10^4/mL into 12-well flat-bottom microplates. Cells were cultured in complete medium supplemented with 10% FBS, 1% L-glutamine, and 1% penicillin/streptomycin at 37 °C, 5% CO2. After seeding, different concentrations of compounds in the range from 0 to 100 µg/mL in a sterile 1X PBS solution were added to the wells and incubated for 24, 48, and 72 h. A negative control was obtained by treating cells with 1X PBS. To detect whether the treatments caused a defect in cell viability, following 24, 48, and 72 h treatments with the compounds, cells were stained with trypan blue (TB, 0.4%) (Gibco™, Thermofisher Scientific, Waltham, MA, USA). Two independent experiments were performed, and a Bürker chamber was used for cell counts. The GI50 value, i.e., the concentration causing a 50% reduction in the cell number in comparison with control cells, was calculated taking into account the guidelines of the US National Cancer Institute (NCI). Values are reported as the mean of the GI50 calculated on two independent experiments.

Row | Compound | pKa ([1]; read-out: pKa3) | pKa ([1]; read-out: pKa4) | pKa ([1]; second sulfonic group, read-out: pKa2) | GI50 [2] | cytotoxic effect (in words) ([2]; U937, up to 100 µg/mL, 24-72 h) | pKa ([1]; hydrazidic NH, read-out: pKa5) | reduction in cell viability ([2]; U937, highest dose, 72 h) [%]
1 | COc1cc(S(=O)(=O)[O-])cc(/C=N/NC(=O)N/N=C/c2cc(S(=O)(=O)[O-])cc(OC)c2O)c1O.[Na+].[Na+] [bis-CH, Bis-(sodium 3-methoxy-5-sulfonate-salicylaldehyde)-carbohydrazone] | 7.77 | 8.45 | 1.7 | 46.5 µg/mL and 71.8 µM | mild antiproliferative activity | – | –
2 | COc1cc(S(=O)(=O)[O-])cc(/C=N/NC(=S)N/N=C/c2cc(S(=O)(=O)[O-])cc(OC)c2O)c1O.[Na+].[Na+] [bis-TCH, Bis-(sodium 3-methoxy-5-sulfonate-salicylaldehyde)-thiocarbohydrazone] | 7.08 | 8.54 | – | 98 µg/mL and 144 µM | – | 11.3 | 50
